Counter-ions that a name gives are not always drawn. Like-named read-outs stand apart in the source and are kept apart here.
Columns and labels:
Type in all cases: cell-based, Human
[1] = test system: MCF7 WT Parental pool; assay: Drug screening, resazurin, MCF7 wild type parental pool; settings: for area under the curve (AUC): PR WT Pool, ten day drug treatment (Table 3)
[2] = test system: MCF7 TP53 KO 3.4 pool; assay: Drug screening, resazurin, TP53 KO 3.4 pool
[3] = test system: MCF7 TP53 KO 5.6 pool; assay: Drug screening, resazurin, TP53 KO 5.6 pool
[4] = test system: MCF7 PR WT A8; assay: Drug treatment of single cell clone PR WT A8; settings: ten day drug treatment; also: unit not given here
[5] = test system: MCF7 PR WT B8; assay: Drug treatment of single cell clone PR WT B8; settings: ten day drug treatment; also: unit not given here
[6] = test system: MCF7 PR WT C7; assay: Drug treatment of single cell clone PR WT C7; settings: ten day drug treatment; also: unit not given here
[7] = test system: MCF7 PR WT G2; assay: Drug treatment of single cell clone PR WT G2; settings: ten day drug treatment; also: unit not given here
[8] = test system: MCF7 TP53 KO 34 B5; assay: Drug treatment of single cell clone KO 34 B5; settings: ten day drug treatment; also: unit not given here
[9] = test system: MCF7 TP53 KO 34 D4; assay: Drug treatment of single cell clone KO 34 D4; settings: ten day drug treatment; also: unit not given here
[10] = test system: MCF7 TP53 KO 34 E1; assay: Drug treatment of single cell clone KO 34 E1; settings: ten day drug treatment
[11] = test system: MCF7 TP53 KO 56 A4; assay: Drug treatment of single cell clone KO 56 A4; settings: ten day drug treatment
[12] = test system: MCF7 TP53 KO 56 A5; assay: Drug treatment of single cell clone KO 56 A5; settings: ten day drug treatment
[13] = test system: MCF7 TP53 KO 56 A6; assay: Drug treatment of single cell clone KO 56 A6; settings: ten day drug treatment
[14] = test system: MCF7 TP53 KO 56 A7; assay: Drug treatment of single cell clone KO 56 A7; settings: ten day drug treatment; also: unit not given here
[15] = test system: MCF7 TP53 KO 56 A8; assay: Drug treatment of single cell clone KO 56 A8; settings: ten day drug treatment
[16] = test system: MCF7 TP53 KO 56 C5; assay: Drug treatment of single cell clone KO 56 C5; settings: ten day drug treatment
[17] = test system: MCF7 TP53 KO 56 E1; assay: Drug treatment of single cell clone KO 56 E1; settings: ten day drug treatment; also: unit not given here
[18] = test system: MCF7 TP53 KO 56 E3; assay: Drug treatment of single cell clone KO 56 E3; settings: ten day drug treatment
[19] = ten-day drug treatment, 156.25 nM to 10 μM, resazurin fluorescence

Compound | MCF7 WT Parental pool (AUC) [1, 19] | TP53 KO 3.4 pool (AUC) [2, 19] | TP53 KO 5.6 pool (AUC) [3, 19] | also measured
O=c1[nH]cc(F)c(=O)[nH]1 [Fluorouracil] | 6.548 | 3.782 | 4.286 | area under the curve (AUC) [1]: 2.156; area under the curve (AUC) ([2]; KO 34 Pool, ten day drug treatment (Table 3)): 1.721; area under the curve (AUC) ([3]; KO 56 Pool, ten day drug treatment (Table 3)): 1.745; area under the curve (AUC) [4]: 2.126; area under the curve (AUC) [5]: 1.886; area under the curve (AUC) [6]: 2.105; area under the curve (AUC) [7]: 2.265; area under the curve (AUC) [8]: 1.618; area under the curve (AUC) [9]: 1.812; area under the curve (AUC) [10]: 1.945; area under the curve (AUC) [11]: 1.716; area under the curve (AUC) [12]: 1.46; area under the curve (AUC) [13]: 1.811; area under the curve (AUC) [14]: 1.81; area under the curve (AUC) [15]: 2.02; area under the curve (AUC) [16]: 1.826; area under the curve (AUC) [17]: 1.697; area under the curve (AUC) [18]: 1.645
COc1ccc(C2=N[C@@H](c3ccc(Cl)cc3)[C@@H](c3ccc(Cl)cc3)N2C(=O)N2CCNC(=O)C2)c(OC(C)C)c1 [Nutlin3] | 3.686 | – | – | area under the curve (AUC) [1]: 1.16; area under the curve (AUC) [4]: 0.9589; area under the curve (AUC) [5]: 0.8828; area under the curve (AUC) [6]: 1.042; area under the curve (AUC) [7]: 1.011
Cc1ccc(C(=O)Nc2ccc(CN3CCN(C)CC3)c(C(F)(F)F)c2)cc1C#Cc1cnc2cccnn12 [Ponatinib] | – | – | – | MCF7 WT Parental pool (AUC) [1]: 3.312; TP53 KO 3.4 pool (AUC) [2]: 2.944; TP53 KO 5.6 pool (AUC) [3]: 3.632
C#CCC(Cc1cnc2nc(N)nc(N)c2n1)c1ccc(C(=O)N[C@@H](CCC(=O)O)C(=O)O)cc1 (stereo partly drawn) [Pralatrexate] | 2.822 | 2.774 | 2.86 | –
CNNCc1ccc(C(=O)NC(C)C)cc1 [Procarbazine Hydrochloride] | 8.119 | 10.04 | 10.7 | –
O=C(c1ccc(OCCN2CCCCC2)cc1)c1c(-c2ccc(O)cc2)sc2cc(O)ccc12 [Raloxifene] | 5.361 | 6.017 | 6.562 | –
CNC(=O)c1cc(Oc2ccc(NC(=O)Nc3ccc(Cl)c(C(F)(F)F)c3)c(F)c2)ccn1 [Regorafenib] | 3.995 | 5.541 | 5.25 | –
C/C=C1\NC(=O)[C@H]2CSSCC/C=C/[C@H](CC(=O)N[C@H](C(C)C)C(=O)N2)OC(=O)[C@H](C(C)C)NC1=O [Romidepsin] | – | – | – | MCF7 WT Parental pool (AUC) [1]: 0.5862; TP53 KO 3.4 pool (AUC) [2]: 0.6551; TP53 KO 5.6 pool (AUC) [3]: 0.5264
CN1CCN(C(=O)c2ccc3cc(CCNc4ncnc5ccc(C#N)cc45)ccc3c2)CC1 [SenexinB] | 5.203 | 6.869 | 6.954 | –
CO[C@H]1C[C@@H]2CC[C@@H](C)[C@@](O)(O2)C(=O)C(=O)N2CCCC[C@H]2C(=O)O[C@H]([C@H](C)C[C@@H]2CC[C@@H](O)[C@H](OC)C2)CC(=O)[C@H](C)/C=C(\C)[C@@H](O)[C@@H](OC)C(=O)[C@H](C)C[C@H](C)/C=C/C=C/C=C/1C [Sirolimus] | 2.534 | 2.623 | 3.106 | –
CN(N=O)C(=O)N[C@@H](C=O)[C@@H](O)[C@H](O)[C@H](O)CO [Streptozocin] | 9.145 | 10.58 | 9.912 | –
CCN(CC)CCNC(=O)c1c(C)[nH]c(/C=C2\C(=O)Nc3ccc(F)cc32)c1C [Sunitinib] | 3.556 | 3.076 | 3.758 | –
CC/C(=C(\c1ccccc1)c1ccc(OCCN(C)C)cc1)c1ccccc1 [TamoxifenCitrate] | 7.863 | 5.949 | 7.798 | –
Cn1nnc2c(C(N)=O)ncn2c1=O [Temozolomide] | 9.187 | 9.565 | 10.06 | –
COc1cc([C@@H]2c3cc4c(cc3[C@@H](O[C@@H]3O[C@@H]5CO[C@@H](c6cccs6)O[C@H]5[C@H](O)[C@H]3O)[C@H]3COC(=O)[C@H]23)OCO4)cc(OC)c1O [Teniposide] | 1.342 | 0.9417 | 1.041 | –
O=C1CCC(N2C(=O)c3ccccc3C2=O)C(=O)N1 (stereo not drawn) [Thalidomide] | 7.13 | 9.18 | 10.21 | –

Compound | MCF7 WT Parental pool (AUC) [1, 19] | TP53 KO 3.4 pool (AUC) [2, 19] | TP53 KO 5.6 pool (AUC) [3, 19] | also measured
S=P(N1CC1)(N1CC1)N1CC1 [Thiotepa] | – | – | – | MCF7 WT Parental pool (AUC) [1]: 3.965; TP53 KO 3.4 pool (AUC) [2]: 5.443; TP53 KO 5.6 pool (AUC) [3]: 5.535
CC[C@@]1(O)C(=O)OCc2c1cc1n(c2=O)Cc2cc3c(CN(C)C)c(O)ccc3nc2-1 [Topotecan Hydrochloride] | 0.7919 | 0.7814 | 0.8044 | –
CC(=O)Nc1cccc(-n2c(=O)n(C3CC3)c(=O)c3c(Nc4ccc(I)cc4F)n(C)c(=O)c(C)c32)c1 [Trametinib] | 7.726 | 6.641 | 8.533 | –
CC1=C(/C=C/C(C)=C/C=C/C(C)=C/C(=O)O)C(C)(C)CCC1 [Tretinoin] | 7.394 | 7.809 | 7.997 | –
C1CN1c1nc(N2CC2)nc(N2CC2)n1 [Triethyleneme1amine] | 2.223 | 2.224 | 2.319 | –
Oc1ncc(N(CCCl)CCCl)c(O)n1 [UracilMustard] | – | – | – | MCF7 WT Parental pool (AUC) [1]: 9.331; TP53 KO 3.4 pool (AUC) [2]: 9.337; TP53 KO 5.6 pool (AUC) [3]: 9.516
CCCCC(=O)OCC(=O)[C@]1(O)Cc2c(O)c3c(c(O)c2[C@@H](O[C@H]2C[C@H](NC(=O)C(F)(F)F)[C@H](O)[C@H](C)O2)C1)C(=O)c1c(OC)cccc1C3=O [Valrubicin] | 1.194 | 1.25 | 1.05 | –
COc1cc2c(Nc3ccc(Br)cc3F)ncnc2cc1OCC1CCN(C)CC1 [Vandetanib] | 2.871 | 2.831 | 3.022 | –
CCCS(=O)(=O)Nc1ccc(F)c(C(=O)c2c[nH]c3ncc(-c4ccc(Cl)cc4)cc23)c1F [Vemurafenib] | 8.722 | 7.987 | 8.365 | –
CC[C@]1(O)C[C@@H]2CN(CCc3c([nH]c4ccccc34)[C@@](C(=O)OC)(c3cc4c(cc3OC)N(C)[C@H]3[C@@](O)(C(=O)OC)[C@H](OC(C)=O)[C@]5(CC)C=CCN6CC[C@]43[C@@H]65)C2)C1 [Vinblastine Sulfate] | 1.393 | 1.54 | 1.382 | –
CC[C@]1(O)C[C@H]2CN(CCc3c([nH]c4ccccc34)[C@@](C(=O)OC)(c3cc4c(cc3OC)N(C=O)[C@H]3[C@@](O)(C(=O)OC)[C@H](OC(C)=O)[C@]5(CC)C=CCN6CC[C@]43[C@@H]65)C2)C1 [Vincristine Sulfate] | 1.668 | 1.776 | 1.54 | –
CS(=O)(=O)c1ccc(C(=O)Nc2ccc(Cl)c(-c3ccccn3)c2)c(Cl)c1 [Vismodegib] | 8.801 | 8.017 | 8.363 | –
O=C(CCCCCCC(=O)Nc1ccccc1)NO [Vorinostat] | 2.073 | 2.202 | 2.114 | –
O=P(O)(O)C(O)(Cn1ccnc1)P(=O)(O)O [Zoledronic Acid] | 9.222 | 9.268 | 9.417 | –
Arsenic Trioxide | 5.018 | 5.242 | 5.373 | –
Bleomycin Sulfate | 3.922 | 4.694 | 3.421 | –

Source: patent publication US20190309272A1, “Genetically Modified Cell Lines Including a TP53 Modification and Methods of Use” (UNIVERSITY OF SOUTH CAROLINA, priority 2018, published 2019)
